“And” between values parts separate entries of the source, which are not always exact repeats. Equal entries are not always repeated.
Tests used:
[1] = system: Aedes aegypti (Orlando strain) females; experiment: Biting assay (mouse-in-cage); assay type: in vivo; parameters: key to Difference between medians: Actual (vs. saline) / Difference between medians: Hodges-Lehmann (vs. saline): differences in percent biting (blood-fed/total females, %); conditions: for Percentage of females that freshly blood-fed on an anesthetized mouse: fed 1 μM 48 h prior, 15 min exposure, individual replicates; for effect on biting / blood-feeding from a live host (in words): fed at a dose of 1 μM
Method: Groups of 60–150 females were placed in bucket cages with a diameter of 21.6 cm and height of 16.5 cm (VWR) and fasted with access to water for 24 h prior to feeding. Meals were delivered to females via Glytube membrane feeders as described previously. Meals consisted of 1.5 ml sheep blood (HemoStat Laboratories), saline (400 mM NaHCO3 + dih2O), or saline and test compound. Lyophilized compounds were stored at room temperature until use. High-concentration stocks (30 mM in 100% dimethyl sulfoxide [DMSO]) (Sigma-Aldrich) were stored at −20 °C and diluted in saline immediately prior to feeding. Once prepared, meals and glycerol heating elements were warmed in a 42 °C water bath for 15 min to provide warmth to attract mosquitos to feed. […] Females were allowed 15–20 min to feed to repletion. Abdominal engorgement was scored by eye and confirmed by weighing females to ensure full feeding (Data S1). […] Females were returned to their original cage with a diH2O wick for 48 h prior to behavioral testing. The lethality of each compound was measured by counting the number of dead females in each cage 24 h post-meal.
This assay was modified from. Females were fed and scored as described above. Forty-eight hours post-meal, females were anesthetized in a 4 °C cold room and aspirated into a petri dish (Thermo Fisher Biosciences) with a randomly assigned color powder (Slice of the Moon; Chameleon Colors) to mark their treatment group. Females were then individually removed from the color powder, placed inside a cage measuring 91 cm × 61 cm × 61 cm (BugDorm), and allowed 2–4 h to recover. Each experiment consisted of a cage with 12–20 females in each treatment group including environmental (non-fed and blood-fed) and vehicle (saline-fed) control groups. The experiment began once an anesthetized mouse was introduced to the center of the cage, and females were allowed 15 min to blood-feed. The mouse was then removed, and the cage was placed at 4 °C to anesthetize females for collection. Females were aspirated into a large glass petri dish (Pyrex) and scored under a dissection microscope (Nikon SMZ1500) for powder color and blood-feeding status. Females were scored as blood-fed if fresh blood was present in the abdomen. Percent biting was calculated as females freshly blood-fed/total females in each respective treatment group.

[2] = system: Aedes aegypti (Orlando strain) females; experiment: Glytube feeding: females feeding to repletion and weight per female (meal palatability); assay type: in vivo; conditions: Supplemental Figure 1 Panel A; compounds of Fig 3; individual replicate values
Method: Groups of 60–150 females were placed in bucket cages with a diameter of 21.6 cm and height of 16.5 cm (VWR) and fasted with access to water for 24 h prior to feeding. Meals were delivered to females via Glytube membrane feeders as described previously. Meals consisted of 1.5 ml sheep blood (HemoStat Laboratories), saline (400 mM NaHCO3 + dih2O), or saline and test compound. Lyophilized compounds were stored at room temperature until use. High-concentration stocks (30 mM in 100% dimethyl sulfoxide [DMSO]) (Sigma-Aldrich) were stored at −20 °C and diluted in saline immediately prior to feeding. Once prepared, meals and glycerol heating elements were warmed in a 42 °C water bath for 15 min to provide warmth to attract mosquitos to feed. ATP (1 mM final concentration) and test compounds (1 μM final concentration) were added prior to placing the meal on top of the mesh on the cage containing female mosquitos. Females were allowed 15–20 min to feed to repletion. Abdominal engorgement was scored by eye and confirmed by weighing females to ensure full feeding (Data S1). […] Females were returned to their original cage with a diH2O wick for 48 h prior to behavioral testing. The lethality of each compound was measured by counting the number of dead females in each cage 24 h post-meal.
Supplementary file 13071_2024_6347_MOESM1_ESM.png: Supplementary Material 1: Figure 1. […] (A) Percent of females feeding to repletion and (B) weight per female after feeding on the indicated meal used for testing in Miniport olfactometer experiments in Figure 3B. (C) Percent of females feeding to repletion and (D) weight per female after feeding on the indicated meal used for testing in live host assays in Figure 4. Data are shown as mean with standard deviation. n = 2–22 replicate cages, 60–150 females/cage. Females were weighed in groups of five to ensure reliable readings. Kruskal–Wallis with Dunn’s multiple comparisons to saline-fed group, ns P > 0.01, * P < 0.01, *** P < 0.0001. (PNG 321 KB)

[3] = system: Aedes aegypti (Orlando strain) females; parameters: method as in PMID 30735632; conditions: previous work; cited from earlier work
Ae. aegypti NPYLR7 = Ae. aegypti NPYLR7 (Aedes aegypti, UniProt U5N1H5); parameters: method as in PMID 30735632; conditions: previous work; read-out: EC50 in activating NPYLR7 in vitro; cited from earlier work
Ae. aegypti NPYLR7, sequence (U5N1H5 entry or part of it): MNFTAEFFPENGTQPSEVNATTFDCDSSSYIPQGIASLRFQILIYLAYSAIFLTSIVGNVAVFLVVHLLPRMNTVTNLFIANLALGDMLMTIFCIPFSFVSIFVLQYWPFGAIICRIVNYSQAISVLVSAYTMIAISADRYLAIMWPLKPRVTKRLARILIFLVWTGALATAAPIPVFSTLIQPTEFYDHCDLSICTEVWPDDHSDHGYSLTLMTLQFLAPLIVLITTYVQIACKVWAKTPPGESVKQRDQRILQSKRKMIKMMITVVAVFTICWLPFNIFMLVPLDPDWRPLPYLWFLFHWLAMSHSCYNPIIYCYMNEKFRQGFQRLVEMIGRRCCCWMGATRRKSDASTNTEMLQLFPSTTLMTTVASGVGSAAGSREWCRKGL

Compound | Difference between medians: Actual (vs. saline) ([1]; fed 1 μM) | Difference between medians: Hodges-Lehmann (vs. saline) ([1]; fed 1 μM) | Median (percent freshly blood-fed) ([1]; fed 1 μM) | Significantly different (P < 0.05)? vs. saline ([1]; fed 1 μM) | Percentage of females that freshly blood-fed on an anesthetized mouse ([1]; listed as TDI-04184) | effect on biting / blood-feeding from a live host (in words) [1] | % feeding (females feeding to repletion) [2] [%] | Difference between medians: Actual (vs. saline) ([1]; fed 100 μM) | Difference between medians: Hodges-Lehmann (vs. saline) ([1]; fed 100 μM) | Median (percent freshly blood-fed) ([1]; fed 100 μM) | Significantly different (P < 0.05)? vs. saline ([1]; fed 100 μM) | effect on blood-feeding from a live host (in words) ([1]; fed at a dose of 100 μM) | fed dose at which behaviorally active [3] [µM] | EC50 (Ae. aegypti NPYLR7) [µM] | Percentage of females that freshly blood-fed on an anesthetized mouse ([1]; listed as TDI-04186)
CNc1nc(NC(=N)N)nc2cc(OCc3ccccc3)c(OC)cc12 [TDI-014184] | -27.4 | -24 | 47.00, n=11% | Yes | 65% and 81% and 47% and 10% and 44% and 86% and 33% and 56% and 35% | reduced biting behavior | 76.92 | – | – | – | – | – | – | – | –
COc1ccc2c(C)nc(NC(=N)N)nc2c1 [TDI-012631, reference compound] | – | – | – | – | – | – | – | -26 | -24.68 | 53.00, n=17% | Yes | inhibited blood-feeding | > 30 | 19.6 | –
Cc1nc(NC(=N)N)nc2cc(N3CCc4ccccc4C3)ccc12 [TDI-014186] | -18.25 | -17 | 54.25, n=9% | Yes | – | effectively reduced biting | 56.22 | – | – | – | – | – | – | – | 31% and 62% and 70% and 67% and 36% and 53% and 65%

Source: PMC11212260, “Next-generation neuropeptide Y receptor small-molecule agonists inhibit mosquito-biting behavior” (Parasites & Vectors, 2024)
